Data on six compounds can be found in patent US20230100844A1, “IBOGAINE COMBINATION TREATMENT” (ATAI Life Sciences AG, priority 2021, published 2023).

Where two headings read alike, the source gives them in different places. Bounds are passed on as bounds.

For data set [1] the following is noted: in vivo; cited from earlier work.
For a further data set, the target named is T1, CYP2D6 (Homo sapiens, UniProt P10635).
T1 construct: host or cells: human subjects (endogenous enzyme of gut wall and liver)
T1 sequence (P10635 whole entry): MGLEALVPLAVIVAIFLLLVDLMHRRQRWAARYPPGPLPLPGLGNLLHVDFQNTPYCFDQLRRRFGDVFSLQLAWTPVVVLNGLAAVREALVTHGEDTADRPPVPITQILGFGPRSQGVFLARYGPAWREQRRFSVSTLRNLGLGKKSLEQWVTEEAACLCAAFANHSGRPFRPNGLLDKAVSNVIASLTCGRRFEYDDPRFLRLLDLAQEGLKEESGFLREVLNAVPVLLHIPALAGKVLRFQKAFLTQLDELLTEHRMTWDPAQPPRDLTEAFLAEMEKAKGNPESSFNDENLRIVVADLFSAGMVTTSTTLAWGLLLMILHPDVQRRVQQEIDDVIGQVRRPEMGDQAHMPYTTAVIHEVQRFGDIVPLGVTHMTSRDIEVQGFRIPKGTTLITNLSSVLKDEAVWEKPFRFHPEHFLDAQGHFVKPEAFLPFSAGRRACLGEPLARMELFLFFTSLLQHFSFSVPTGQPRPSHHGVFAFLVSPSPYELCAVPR
Particulars: humans; cited from earlier work.

The conditions of data set [2]: cited from earlier work.
Data set [3] is described as follows: Nonclinical proof-of-concept PD study: drug self-administration after CYP2D6 inhibitor plus ibogaine. In kind it is in vivo, rats and/or nonhuman primates. Particulars: single dose CYP2D6 inhibitor followed by single dose ibogaine. How it is done: Nonclinical proof-of-concept PD studies (rats and/or nonhuman primates):
Dose(s) of CYP2D6 inhibitor based on prior PK studies in the same species are tested. Intravenous drug self-administration studies involve training the animal to emit a response (e.g., lever press) for a non-drug reinforcer (e.g., food) under specific stimulus conditions in the test chamber. Then, the animal undergoes aseptic surgery to place a chronically indwelling intravenous cannula that is connected to a drug infusion system within the test chamber. After surgical recovery, the stimulus conditions in the test chamber now signal the availability of a drug reinforcer (e.g., morphine or cocaine), and lever pressing results in an intravenous infusion of the available drug during daily session. For studies of oral self-administration (e.g., ethanol), animals are trained to self-administer the drug using a lever paradigm (e.g., in which pressing of the lever results in delivery of the drug solution into a drinking cup) or a two-bottle choice […] paradigm (e.g., in which animals are allowed to drink for 24 hours from one bottle containing a drug solution or another bottle containing water). During a test session, vehicle or a dose of CYP2D6 inhibitor is administered prior to a dose of ibogaine and then, responses on the drug-associated lever or the volume of drug solution consumed are measured.

For data set [4] the following is noted: in vivo; cited from earlier work. This is another data set of the same source.
For data set [5] the following is noted: animals, meta-analysis; cited from earlier work.
The conditions of data set [6]: single oral 8-12 mg/kg HCl; cited from earlier work.
For data set [7] the following is noted: single oral 10 mg/kg ibogaine, cited from earlier work.
For data set [8] the following is noted: cited from earlier work; for plasma exposures with chronic paroxetine: CYP2D6 extensive metabolizers, paroxetine 10-20 mg, single ibogaine 20 mg (about 0.3 mg/kg); for time out to which ibogaine plasma exposures are detectable: single ibogaine 20 mg.
The conditions of data set [9]: single oral administration, humans; cited from earlier work.
For data set [10] the following is noted: oral administration; cited from earlier work.

With `CNCCC(Oc1ccc(C(F)(F)F)cc1)c1ccccc1` (stereo not shown) [Fluoxetine, fluoxetine], the half-life result in [1] is listed as “long half-life (days)”.

On to `C=C[C@H]1C[N@@]2CC[C@H]1C[C@@H]2[C@@H](O)c1ccnc2ccc(OC)cc12` [Quinidine, quinidine], for which the “in vivo CYP2D6 inhibition” value on CYP2D6 is “can inhibit the metabolism of the CYP2D6 substrate debrisoquine in vivo”.

For `CC(NC(C)(C)C)C(=O)c1cccc(Cl)c1` (stereo not shown) [bupropion], the single-dose half-life in data set [2] (single dose) was 10 to 15 h.

Take `C[C@H]1NC(C)(C)CO[C@]1(O)c1cccc(Cl)c1` [hydroxybupropion]: in data set [2] (bupropion metabolites that also inhibit CYP2D6), the half-life of metabolite was 22 to 25 h.

Take `CCC1CC2CC3c4[nH]c5ccc(OC)cc5c4CCN(C2)C13` (stereo not shown) [ibogaine, Ibogaine]: in [3], the “therapeutic-like effects (reduction of drug self-administration) with CYP2D6 inhibitor pretreatment” value is reported as “increases ibogaine's therapeutic-like effects”. The “time within which visualizations and perceptual changes subside” value in [4] was 6 to 8 h. The “self-administration of drugs (opiates, cocaine, ethanol)” value in data set [5] is given as “reduced self-administration of several drugs”. Moreover, the “opioid withdrawal signs, craving and mood” value in data set [6] was “reduced opioid withdrawal signs and craving and increased mood”. Further, the “absorbed ibogaine eliminated by 24 hours post dose” value in data set [7] (CYP2D6 extensive metabolizers) was above 90%. The “exposure in CYP2D6 poor metabolizers compared to extensive metabolizers” value in data set [7] is “modestly increased”. Besides, in data set [8], the “plasma exposures with chronic paroxetine” value is on record as “increased plasma exposures”. Moreover, the “time out to which ibogaine plasma exposures are detectable” value in data set [8] (chronic paroxetine 10-20 mg) is given as 72 h. For the same compound, the “time out to which ibogaine plasma exposures are detectable” value in [8] (chronic placebo treatment) is below 4 h. In addition, in data set [9], the “time blood concentrations were detectable” value is recorded as “about 24 h” and the “time to peak blood concentration” value is listed as “peaked within a couple of hours”. Besides, the “cardiac QT interval” value in data set [10] is “associated with cardiac QT interval prolongation”.

On to `CC[C@H]1C[C@H]2C[C@H]3c4[nH]c5ccc(O)cc5c4CCN(C2)[C@@H]13` [noribogaine], for which, in data set [7] (CYP2D6 extensive metabolizers), the Cmax in blood entry is reported as “in the same range as the parent drug” and the “concentrations at 24 hours” value is recorded as “remained elevated”. Further, the “exposure in CYP2D6 poor metabolizers compared to extensive metabolizers” value in [7] was “markedly decreased”. Besides, in data set [8], the “plasma exposures with chronic paroxetine” value is on record as “decreased plasma exposures”. Also, in data set [9], the “time blood concentrations were detectable” value is on record as “detectable for a longer duration” and the “time to peak blood concentration” value was “peaked later”.
